The target in assay [1] is Human Mer (residues R557-E882 with H628Q and R794A) (Homo sapiens, UniProt Q12866). Put plainly: Human Mer kinase assay, 33P-phosphoryl transfer radiometric (Example C-1, KinaseProfiler). The format is biochemical. As to the method: (§1) Kinase activity and compound inhibition were investigated using the ^33P-Phosphoryl transfer radiometric kinase assay, performed using the KinaseProfiler™ service of Eurofins Pharma Discovery Services UK Limited. Dose-response experiments were performed using nine compound concentrations in a 96-well microtiter plate. For each assay, all compounds were prepared to a 50× final assay concentration (50 μM) in 100% DMSO, then diluted in a half-log series, with the final top concentration at 1 μM. This working stock of the compound was added to the assay well as the first component in the reaction, followed by the remaining components as detailed in the following assay protocols below. The positive control wells (100% kinase activity) contain all components of the reaction including 2% DMSO (control for solvent effects), except the compound of interest. Blank wells contain all components of the reaction, with the reference inhibitor, staurosporine. This reference compound was used to abolish kinase activity and generated the 0% kinase activity base-line. IC50 values were calculated by nonlinear regression analysis using the sigmoidal dose-response (variable slope) curve fit on XLFit version 5.3 (ID Business Solutions).
Example C-1: Human Mer (residues R557-E882 with H628Q and R794A, 0.7 nM) was incubated with 8 mM MOPS pH 7.0, 0.2 mM EDTA, 30 mM NaCl, 250 μM […] (SEQ ID NO:2), 10 mM magnesium acetate, and 10 μM [γ-^33P-ATP]. The reaction was initiated by the addition of the Mg/ATP mix. After incubation for 40 minutes at room temperature, the reaction was stopped by the addition of phosphoric acid to a concentration of 0.5%. A reaction aliquot of 10 μL was then spotted onto a P30 filtermat and washed four times for 4 minutes in 0.425% phosphoric acid and once in methanol prior to drying and scintillation counting. Incorporated ^33P was measured using the Wallac Microbeta scintillation counter (Perkin Elmer).

In assay [2] the target is Human Met (residues R974-S1390 with A1209G and V1290L) (Homo sapiens, UniProt P08581). The assay can be described thus: Human Met kinase assay, 33P-phosphoryl transfer radiometric (Example D-1, KinaseProfiler). The class given is biochemical. The following applies: protocol of Example D-1 (compounds 21-27, 41-47, 99, 104); read-out: c-Met IC50. Here is the method:
as §1
Example D-1: Human Met (residues R974-S1390 with A1209G and V1290L, 3.4 nM) was incubated with 8 mM MOPS pH 7.0, 0.2 mM EDTA, 250 µM […] (SEQ ID NO:3), 1 mM sodium orthovanadate, 5 mM […], 10 mM magnesium acetate, and 10 μM [γ-^33P-ATP]. The reaction was initiated by the addition of the Mg/ATP mix. After incubation for 40 minutes at room temperature, the reaction was stopped by the addition of phosphoric acid to a concentration of 0.5%. A reaction aliquot of 10 μL was then spotted onto a P30 filtermat and washed four times for 4 minutes in 0.425% phosphoric acid and once in methanol prior to drying and scintillation counting. Incorporated ^33P was measured using the Wallac Microbeta scintillation counter (Perkin Elmer).

Assay [3] addresses KDR (phospho-KDR, VEGF165-stimulated HUVEC cells) (Homo sapiens (Human), UniProt P35968). Put plainly: KDR autophosphorylation ELISA in HUVEC cells (Example G). The format is cell-based. The following applies: cellular activity; KDR autophosphorylation ELISA in HUVEC cells. Put shortly: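 Read-out is phospho-KDR measured by ELISA in lysates of VEGF165-stimulated (100 ng/mL, 5 min) HUVEC that were serum-starved 24 h and then pre-exposed 1 h to compound across 8 doses in 0.3% DMSO. Unstimulated lysates defined 0% and stimulated vehicle lysates 100% activity; IC50 values come from 4-parameter logistic regression.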
In general terms: ELISA stands for enzyme-linked immunosorbent assay.

Where [4] appears, read: protocol of Example C-1 (compounds 21-27, 41-47, 99, 104).

Read-outs that look alike come from different tables or passages of the source.

KDR (phospho-KDR, VEGF165-stimulated HUVEC cells), sequence (P35968 20-1356): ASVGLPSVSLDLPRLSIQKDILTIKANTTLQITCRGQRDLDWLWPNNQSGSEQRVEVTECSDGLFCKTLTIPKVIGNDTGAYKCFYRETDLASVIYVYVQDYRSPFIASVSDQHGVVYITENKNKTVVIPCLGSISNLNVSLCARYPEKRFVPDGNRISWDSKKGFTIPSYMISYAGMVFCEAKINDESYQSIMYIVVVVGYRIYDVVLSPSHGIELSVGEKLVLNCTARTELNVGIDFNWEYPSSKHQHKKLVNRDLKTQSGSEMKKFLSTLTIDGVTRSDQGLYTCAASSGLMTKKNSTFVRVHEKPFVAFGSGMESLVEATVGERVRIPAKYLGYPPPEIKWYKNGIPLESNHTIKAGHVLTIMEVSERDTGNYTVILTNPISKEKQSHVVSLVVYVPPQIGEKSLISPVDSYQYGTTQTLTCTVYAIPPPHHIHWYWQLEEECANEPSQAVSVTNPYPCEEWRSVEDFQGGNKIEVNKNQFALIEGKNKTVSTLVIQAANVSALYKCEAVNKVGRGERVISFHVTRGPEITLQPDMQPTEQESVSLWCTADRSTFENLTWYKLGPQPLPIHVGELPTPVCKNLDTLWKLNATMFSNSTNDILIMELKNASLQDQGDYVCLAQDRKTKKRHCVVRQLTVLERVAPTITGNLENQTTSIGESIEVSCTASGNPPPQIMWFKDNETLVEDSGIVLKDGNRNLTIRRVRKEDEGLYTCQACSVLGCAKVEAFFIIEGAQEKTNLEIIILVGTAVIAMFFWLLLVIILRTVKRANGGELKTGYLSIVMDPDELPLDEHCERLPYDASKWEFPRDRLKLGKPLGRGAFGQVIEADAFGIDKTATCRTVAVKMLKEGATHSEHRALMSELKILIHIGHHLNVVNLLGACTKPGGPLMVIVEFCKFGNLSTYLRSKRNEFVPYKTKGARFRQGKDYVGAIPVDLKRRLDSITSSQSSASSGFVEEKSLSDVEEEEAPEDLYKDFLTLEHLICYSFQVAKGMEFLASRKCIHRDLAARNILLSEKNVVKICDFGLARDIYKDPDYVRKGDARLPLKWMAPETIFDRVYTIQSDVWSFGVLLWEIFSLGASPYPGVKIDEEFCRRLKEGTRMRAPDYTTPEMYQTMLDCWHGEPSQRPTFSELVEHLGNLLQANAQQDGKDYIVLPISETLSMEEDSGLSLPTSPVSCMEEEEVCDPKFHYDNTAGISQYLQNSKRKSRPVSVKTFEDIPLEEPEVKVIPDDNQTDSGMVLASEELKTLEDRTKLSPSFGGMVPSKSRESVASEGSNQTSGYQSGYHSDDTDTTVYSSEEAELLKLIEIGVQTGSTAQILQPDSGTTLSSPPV
Human Met (residues R974-S1390 with A1209G and V1290L), sequence (P08581 25-1390 limits assumed, stated change not applied): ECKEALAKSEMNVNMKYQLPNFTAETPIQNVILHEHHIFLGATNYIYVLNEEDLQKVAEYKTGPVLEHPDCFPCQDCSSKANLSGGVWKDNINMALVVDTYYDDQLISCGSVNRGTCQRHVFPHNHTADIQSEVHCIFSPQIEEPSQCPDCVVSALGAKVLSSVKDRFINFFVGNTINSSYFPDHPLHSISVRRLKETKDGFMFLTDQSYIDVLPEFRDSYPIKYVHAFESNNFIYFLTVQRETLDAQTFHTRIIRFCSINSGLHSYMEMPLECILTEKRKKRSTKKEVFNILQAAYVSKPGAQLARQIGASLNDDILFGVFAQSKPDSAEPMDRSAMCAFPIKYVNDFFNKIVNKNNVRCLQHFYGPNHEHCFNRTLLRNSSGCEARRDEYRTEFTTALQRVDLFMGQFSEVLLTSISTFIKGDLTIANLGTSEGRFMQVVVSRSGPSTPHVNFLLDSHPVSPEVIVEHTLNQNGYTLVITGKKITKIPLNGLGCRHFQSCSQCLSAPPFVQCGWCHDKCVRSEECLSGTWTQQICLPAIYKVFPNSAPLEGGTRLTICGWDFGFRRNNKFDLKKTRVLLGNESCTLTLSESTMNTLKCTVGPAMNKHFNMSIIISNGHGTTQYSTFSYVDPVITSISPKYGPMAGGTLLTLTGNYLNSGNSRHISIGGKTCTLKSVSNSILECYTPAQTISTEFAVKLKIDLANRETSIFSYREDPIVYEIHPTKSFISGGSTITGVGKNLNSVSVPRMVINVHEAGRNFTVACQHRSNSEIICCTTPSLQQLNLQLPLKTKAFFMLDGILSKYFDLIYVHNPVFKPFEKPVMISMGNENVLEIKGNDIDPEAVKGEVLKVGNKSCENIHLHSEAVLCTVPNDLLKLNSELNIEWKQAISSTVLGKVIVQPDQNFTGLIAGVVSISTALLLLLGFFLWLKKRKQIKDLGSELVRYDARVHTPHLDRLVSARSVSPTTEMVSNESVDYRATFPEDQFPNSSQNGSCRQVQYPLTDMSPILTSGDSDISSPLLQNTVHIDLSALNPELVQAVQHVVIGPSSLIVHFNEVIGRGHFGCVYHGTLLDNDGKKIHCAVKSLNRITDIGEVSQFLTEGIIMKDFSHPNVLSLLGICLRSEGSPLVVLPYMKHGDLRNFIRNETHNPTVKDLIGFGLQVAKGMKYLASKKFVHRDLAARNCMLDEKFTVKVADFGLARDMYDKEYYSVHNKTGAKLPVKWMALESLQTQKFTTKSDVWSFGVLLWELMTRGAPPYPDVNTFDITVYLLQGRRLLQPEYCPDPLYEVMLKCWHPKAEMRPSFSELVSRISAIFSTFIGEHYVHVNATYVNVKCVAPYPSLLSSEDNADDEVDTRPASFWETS
Human Mer (residues R557-E882 with H628Q and R794A), sequence (Q12866 21-999 limits assumed, stated change not applied): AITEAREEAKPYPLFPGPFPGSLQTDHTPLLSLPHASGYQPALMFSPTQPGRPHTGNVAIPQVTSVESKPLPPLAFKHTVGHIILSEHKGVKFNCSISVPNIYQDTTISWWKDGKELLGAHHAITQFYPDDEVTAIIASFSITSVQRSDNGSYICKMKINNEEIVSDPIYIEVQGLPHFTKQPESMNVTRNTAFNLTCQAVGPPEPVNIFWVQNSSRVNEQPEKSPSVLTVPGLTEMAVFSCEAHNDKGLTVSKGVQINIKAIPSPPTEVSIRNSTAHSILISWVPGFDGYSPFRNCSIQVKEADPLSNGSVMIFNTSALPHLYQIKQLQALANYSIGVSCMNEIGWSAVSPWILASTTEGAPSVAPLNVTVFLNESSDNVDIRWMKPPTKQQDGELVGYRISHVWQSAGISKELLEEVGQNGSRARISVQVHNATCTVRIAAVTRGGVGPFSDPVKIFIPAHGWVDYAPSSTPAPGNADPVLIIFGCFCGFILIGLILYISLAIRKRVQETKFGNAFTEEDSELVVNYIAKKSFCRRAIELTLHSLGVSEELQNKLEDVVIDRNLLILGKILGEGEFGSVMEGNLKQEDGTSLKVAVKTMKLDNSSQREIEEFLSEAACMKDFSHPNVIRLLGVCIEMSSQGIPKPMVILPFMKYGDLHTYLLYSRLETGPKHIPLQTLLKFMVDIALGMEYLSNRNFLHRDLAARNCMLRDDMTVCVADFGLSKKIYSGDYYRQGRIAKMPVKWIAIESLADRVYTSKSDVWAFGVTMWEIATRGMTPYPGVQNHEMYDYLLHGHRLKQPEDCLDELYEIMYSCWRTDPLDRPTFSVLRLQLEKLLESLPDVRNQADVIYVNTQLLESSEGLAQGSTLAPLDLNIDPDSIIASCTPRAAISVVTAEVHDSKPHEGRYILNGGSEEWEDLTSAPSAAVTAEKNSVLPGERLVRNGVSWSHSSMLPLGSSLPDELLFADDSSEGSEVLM

Consider `COc1cc2nccc(Oc3ccc(NC(=O)c4cn(C(C)C)c(C)c(-c5ccc(F)cc5)c4=O)cc3F)c2nc1OC` [Compound 21, N-[4-[(6,7-Dimethoxy-1,5-naphthyridin-4-yl)oxy]-3-fluorophenyl]-5-(4-fluorophenyl)-6-methyl-4-oxo-1-propan-2-ylpyridine-3-carboxamide], for which the IC50 in assay [1] (setting [4]), in assay [2] and in assay [3] was below 100 nM in each case.
Take `COc1cc2nccc(Oc3ccc(NC(=O)c4cn(C(C)C)c(C)c(-c5ccc(F)cc5)c4=O)cc3F)c2cc1OC` [Compound 22, N-[4-(6,7-Dimethoxyquinolin-4-yl)oxy-3-fluorophenyl]-5-(4-fluorophenyl)-6-methyl-4-oxo-1-propan-2-ylpyridine-3-carboxamide]: the IC50 in assay [1] (setting [4]) was below 100 nM; in assay [2], below 100 nM; in assay [3], 100 to 300 nM.
On to `COc1cc2nccc(Oc3ccc(NC(=O)c4cn(C(C)C)c(C)c(-c5ccc(Cl)c(Cl)c5)c4=O)cc3F)c2cc1OC` [Compound 23, 5-(3,4-Dichlorophenyl)-N-[4-(6,7-dimethoxyquinolin-4-yl)oxy-3-fluorophenyl]-6-methyl-4-oxo-1-propan-2-ylpyridine-3-carboxamide], for which the IC50 in assay [1] was 100 to 300 nM; in assay [2], below 100 nM; in assay [3], above 300 nM.
Regarding `COc1cc2nccc(Oc3ccc(NC(=O)c4cn(C(C)C)c(C)c(-c5ccc(F)c(Cl)c5)c4=O)cc3F)c2nc1OC` [Compound 24, 5-(3-Chloro-4-fluorophenyl)-N-[4-[(6,7-dimethoxy-1,5-naphthyridin-4-yl)oxy]-3-fluorophenyl]-6-methyl-4-oxo-1-propan-2-ylpyridine-3-carboxamide], the values for the IC50 in assay [1] (setting [4]), in assay [2] and in assay [3] were below 100 nM, below 100 nM and 100 to 300 nM, respectively.
With `COc1cc2nccc(Oc3ccc(NC(=O)c4cn(C(C)C)c(C)c(-c5ccc(Cl)c(Cl)c5)c4=O)cc3F)c2nc1OC` [Compound 25, 5-(3,4-Dichlorophenyl)-N-[4-[(6,7-dimethoxy-1,5-naphthyridin-4-yl)oxy]-3-fluorophenyl]-6-methyl-4-oxo-1-propan-2-ylpyridine-3-carboxamide], the results for the IC50 in assay [1] (setting [4]), in assay [2] and in assay [3] were below 100 nM, below 100 nM and 100 to 300 nM, respectively.
Take `COc1cc2nccc(Oc3ccc(NC(=O)c4cn(C5CCCC5)c(C)c(-c5ccc(F)cc5)c4=O)cc3F)c2nc1OC` [Compound 26]: the half-inhibitory concentration (IC50) in assay [1] (setting [4]), in assay [2] and in assay [3] was below 100 nM each time.
As for `COc1cc2nccc(Oc3ccc(NC(=O)c4cn(C5CCCC5)c(C)c(-c5ccc(F)c(Cl)c5)c4=O)cc3F)c2nc1OC` [Compound 27, 5-(3-Chloro-4-fluorophenyl)-1-cyclopentyl-N-[4-[(6,7-dimethoxy-1,5-naphthyridin-4-yl)oxy]-3-fluorophenyl]-6-methyl-4-oxopyridine-3-carboxamide], the IC50 in assay [1] (setting [4]), in assay [2] and in assay [3] was below 100 nM in each case.
As for `COc1cc2nccc(Oc3ccc(NC(=O)c4cn(C5CC5)cc(-c5ccc(F)cc5)c4=O)cc3F)c2nc1OC` [Compound 41, 1-Cyclopropyl-N-[4-[(6,7-dimethoxy-1,5-naphthyridin-4-yl)oxy]-3-fluorophenyl]-5-(4-fluorophenyl)-4-oxopyridine-3-carboxamide], the results for the IC50 in assay [1] (setting [4]), in assay [2] and in assay [3] were below 100 nM, below 100 nM and 100 to 300 nM, respectively.
Turning to `COc1cc2nccc(Oc3ccc(NC(=O)c4cncc(-c5ccc(F)cc5)c4O)cc3F)c2nc1OC` [Compound 42, N-[4-[(6,7-Dimethoxy-1,5-naphthyridin-4-yl)oxy]-3-fluorophenyl]-5-(4-fluorophenyl)-4-hydroxypyridine-3-carboxamide], the IC50 in assay [1] (setting [4]), in assay [2] and in assay [3] was below 100 nM in each case.
On to `COc1cc2nccc(Oc3ccc(NC(=O)c4cn(C(C)C)cc(-c5ccc(F)cc5)c4=O)cc3F)c2cc1OC` [Compound 43, N-[4-(6,7-Dimethoxyquinolin-4-yl)oxy-3-fluorophenyl]-5-(4-fluorophenyl)-4-oxo-1-propan-2-ylpyridine-3-carboxamide], for which the IC50 in assay [1] (setting [4]), in assay [2] and in assay [3] was below 100 nM throughout.
On to `COc1cc2nccc(Oc3ccc(NC(=O)c4cn(C(C)C)cc(-c5ccc(F)cc5)c4=O)cc3F)c2nc1OC` [Compound 44, N-[4-[(6,7-Dimethoxy-1,5-naphthyridin-4-yl)oxy]-3-fluorophenyl]-5-(4-fluorophenyl)-4-oxo-1-propan-2-ylpyridine-3-carboxamide], for which the IC50 in assay [1] (setting [4]) was below 100 nM; in assay [2], below 100 nM; in assay [3], 100 to 300 nM.
For the molecule `COc1cc2nccc(Oc3ccc(NC(=O)c4cn(C)cc(-c5ccc(F)cc5)c4=O)cc3F)c2nc1OC` [Compound 45, N-[4-[(6,7-Dimethoxy-1,5-naphthyridin-4-yl)oxy]-3-fluorophenyl]-5-(4-fluorophenyl)-1-methyl-4-oxopyridine-3-carboxamide], the IC50 in assay [1] (setting [4]), in assay [2] and in assay [3] was below 100 nM throughout.
For the molecule `COc1cc2nccc(Oc3ccc(NC(=O)c4cn(C5CCCC5)cc(-c5ccc(F)cc5)c4=O)cc3F)c2nc1OC` [Compound 46, 1-Cyclopentyl-N-[4-[(6,7-dimethoxy-1,5-naphthyridin-4-yl)oxy]-3-fluorophenyl]-5-(4-fluorophenyl)-4-oxopyridine-3-carboxamide], the IC50 is below 100 nM in assay [1] (setting [4]), below 100 nM in assay [2] and 100 to 300 nM in assay [3].
Consider `COc1cc2nccc(Oc3ccc(NC(=O)c4cn(C5COC5)cc(-c5ccc(F)cc5)c4=O)cc3F)c2nc1OC` [Compound 47, N-[4-[(6,7-Dimethoxy-1,5-naphthyridin-4-yl)oxy]-3-fluorophenyl]-5-(4-fluorophenyl)-1-(oxetan-3-yl)-4-oxopyridine-3-carboxamide], for which the IC50 is below 100 nM in assay [1] (setting [4]), below 100 nM in assay [2] and above 300 nM in assay [3].
For `CNc1ncc(C(=O)Nc2ccc(Oc3ccnc4cc(OC)c(OC)nc34)c(F)c2)c(=O)n1-c1ccc(F)cc1` [Compound 99, N-[4-[(6,7-Dimethoxy-1,5-naphthyridin-4-yl)oxy]-3-fluorophenyl]-1-(4-fluorophenyl)-2-(methylamino)-6-oxopyrimidine-5-carboxamide], the IC50 in assay [1] (setting [4]), in assay [2] and in assay [3] was below 100 nM each time.
`COc1cc2nccc(Oc3ccc(NC(=O)c4c[nH]c(=S)n(-c5ccc(F)cc5)c4=O)cc3F)c2nc1OC` [Compound 104, N-[4-[(6,7-Dimethoxy-1,5-naphthyridin-4-yl)oxy]-3-fluorophenyl]-3-(4-fluorophenyl)-4-oxo-2-sulfanylidene-1H-pyrimidine-5-carboxamide]: the IC50 in assay [1] (setting [4]) is above 300 nM; in assay [2] it was above 300 nM; in assay [3], below 100 nM.

For orientation: IC50 means the point on the concentration scale where inhibition reaches its midpoint.

Source of the values: patent US12371428B2 (Exelixis, Inc., priority 2019, dated 2025).
